# Test results reported in patent US11439713B2, “Method for creating a renal injury model to screen molecules for the treatment of renal injury” (BAYER AKTIENGESELLSCHAFT, priority 2017, dated 2022).
# “Also recorded” adds a separate entry of the source.
# B1: Sema3a: recombinant mouse Semaphorin-3A protein (R&D System), non-hypertensive injury inducer (protein, UniProt O08665 21-772, looked up)
# Semaphorin-3A: NYANGKNNVPRLKLSYKEMLESNNVITFNGLANSSSYHTFLLDEERSRLYVGAKDHIFSFNLVNIKDFQKIVWPVSYTRRDECKWAGKDILKECANFIKVLEAYNQTHLYACGTGAFHPICTYIEVGHHPEDNIFKLQDSHFENGRGKSPYDPKLLTASLLIDGELYSGTAADFMGRDFAIFRTLGHHHPIRTEQHDSRWLNDPRFISAHLIPESDNPEDDKVYFFFRENAIDGEHSGKATHARIGQICKNDFGGHRSLVNKWTTFLKARLICSVPGPNGIDTHFDELQDVFLMNSKDPKNPIVYGVFTTSSNIFKGSAVCMYSMSDVRRVFLGPYAHRDGPNYQWVPYQGRVPYPRPGTCPSKTFGGFDSTKDLPDDVITFARSHPAMYNPVFPINNRPIMIKTDVNYQFTQIVVDRVDAEDGQYDVMFIGTDVGTVLKVVSVPKETWHDLEEILLEEMTVFREPTTISAMELSTKQQQLYIGSTAGVAQLPLHRCDIYGKACAECCLARDPYCAWDGSSCSRYFPTAKRRTRRQDIRNGDPLTHCSDLQHHDNHHGPSLEERIIYGVENSSTFLECSPKSQRALVYWQFQRRNEDRKEEIRMGDHIIRTEQGLLLRSLQKKDSGNYLCHAVEHGFMQTLLKVTLEVIDTEHLEELLHKDDDGDGSKIKEMSSSMTPSQKVWYRDFMQLINHPNLNTMDEFCEQVWKRDRKQRRQRPGHSQGSSNKWKHMQESKKGRNRRTHEFERAPRSV
# How the values were obtained:
# C57Bl/6 mice [1] = assay: AGISHA model with AngII as injury inducer (ACR in urine); assay type: in vivo
# Description: Five groups with 10-12 mice per group (C57Bl/6, Charles River Laboratories, 6-7 weeks old) were set for one experiment. After delivery, animals remained in a temperature- and light-controlled room with standardized mouse chow and water ad libitum for a one week acclimatization period, following guidelines of local governmental institutions (LANUV Germany). The groups were divided as follows (see FIG. 1): • 1. Control group without AngII bolus injection, but with control saline and additional (oral) administration of drug vehicle (10% ethanol, 40% solutol, 50% water or saline). • 2. AngII group, treated with AngII in normal saline, and drug vehicle. AngII administration occurred in two bolus injections (i.v.+s.c.) of 10 μg (5 μg i.v.+5 μg s.c.), 16 μg (8 μg i.v.+8 μg s.c.) and 20 μg (10 μg i.v.+10 μg s.c.) per mouse, where the first bolus was injected intravenously and the second bolus subcutaneously. The drug vehicle was administered orally.
# 3. Candidate groups 3 and 4: AngII injection and additional treatment with the investigated drug/drugs. For substance testing, drugs or appropriated vehicles were administered orally, via i.v., s.c., or i.p. Administration occurred prior to or after AngII-injection. For example, investigated drug/drugs were given orally 30 minutes before the induction of the injury. • 4. Group 5 is the positive control group Animals were injected with AngII and treated orally with Losartan 30 mg/kg. Losartan is an AngII receptor blocker AT1 (Pieter B M et al, Pharma. Rev., 1993, Kang P M et al, Progress in Cardiology, 1994).
# After AngII injection animals were placed in metabolic cages (Technoplast, Italy) for urine collection for up to 4 hours. At the end of the experiment the urine was analyzed to quantify the ACR. More specifically, the collected urine was analyzed using an automatic analyzer for urinary albumin as well as urinary creatinine (Coban® Integra 400, Roche, Basel, SUI) or using the Mouse albumin ELISA kit (ABCAM, Cambridge, UK). […] The AGISHA model was performed in 3 identical cycles with a one-week break for recovery.
# Negative and positive control experiment. To confirm the findings shown in FIG. 2-4, the mode of action in AGISHA was investigated. In the following experiment, three of the animal groups were pre-treated with three different drugs by oral application 30 minutes before administration of injury inducer (see FIG. 5). • 1) Enalapril 10 mg/kg, an angiotensin-converting enzyme (ACE) inhibitor, is standard of care for high blood pressure. It was used as positive modulator control 1 of the renin-angiotensin system (RAS) in the AGISHA model. • 2) Losartan potassium, 30 mg/kg, angiotensin II type I receptor (AT1) antagonist, standard of care for high blood pressure (Kang et al, 1994; Sica D A et al, Clin Parmacokinet., 2005) was used as positive modulator control 2 of the RAS system in the AGISHA model. • 3) Tivozanib, 3 mg/kg, vascular endothelial grow factor receptor tyrosine kinase inhibitor (Campas C et al, Drugs Fut., 2009) was used as negative modulator of the RAS system during AGISHA model. […]
# The experiment was performed as described in example 5, except that the sGC stimulator 5-cyclopropyl-2-[1-(2-fluorobenzyl)-1H-pyrazolo[3,4-b]pyridin-3-yl]pyrimidin-4-amine was used for treatment. […] Losartan (30 mg/kg) was used as positive control.
# [2] = system: rat model of hypertension; details: Hoffmann L S et al. 2015; cited from earlier work
# mice = assay: GFR-based model with AVP and Sinestrin-FITC; assay type: in vivo; details: AVP 35 μg (15 μg i.v. + 20 μg second bolus); vs control group
# Description: A similar setup (FIG. 23) was used with AVP (Sigma-Aldrich, Mo.) at a dose of 35 μg, i.e. using a first bolus with 15 μg AVP, injected i.v. in combination with Sinestrin-FITC 150 mg/kg (50 ul+50 ul) and using a second bolus of 20 μg AVP, 100 uL, injected i.v. As before GFR, was decreased by AVP compared with the control group.
# C57Bl/6 mice [3] = assay: AGISHA model with Vasopressin (AVP) as injury inducer (ACR in urine); assay type: in vivo; details: AVP 10 μg i.v.+10 μg s.c.; vs NaCl
# [4] = Tapia R et al, KI, 2008; cited from earlier work
# Male BL6/J mice [5] = assay: GFBI test model with Sema3a as injury inducer (half-life of Ficoll-FITC); assay type: in vivo; details: Sema3a 0.5 μg/g bodyweight i.v., vs BSA control
# Description: (§1) AngII induced GBM damage is a fast and stable trigger method to mimic human hypertensive glomerular disease or its complications. However, a non-hypertensive trigger was required to study the non-hypertensive kidney pathologies. […] For the example at hand, other than described by Tapia R et al, Sema3a was injected i.v. and ACR and GFB integrity were evaluated in the following setup with the following experimental groups. • 1) Male BL6/J mice were injected via tail vein with a mix of Ficoll-FITC 150 mg/kg and BSA (0.5 μg/g of BW), in a maximal volume of 100 μl. • 2) Male BL6/J mice were injected via tail vein with a mix of Ficoll-FITC 150 mg/kg and Sema3a (R&D System, USA), 0.5 μg/g of BW, in a maximal volume of 100 μl.
# (§2) The animals went under transcutaneous fluorescent measurement for 2 h, as described before. The GFB integrity test was able to detect the loss of fluorescent dye due to podocyte effacement as well as the increased ACR in the urine. […] This peptide is able to disrupt the ability of the Sema3A to induce the decay of the fluorescent dye. The sensitivity of the GFBI test was evaluated as follows and subjects were pre-treated according to the following groups: • 1. […]
# Male BL6/J mice [6] = assay: ACR after Sema3a bolus injection; assay type: in vivo; details: Sema3a 0.5 μg/g bodyweight i.v.; vs BSA control
# Description: as §1, §2
molecule,measurement,setting,value
"Nc1nc(-c2nn(Cc3ccccc3F)c3ncccc23)ncc1C1CC1 [5-cyclopropyl-2-[1-(2-fluorobenzyl)-1H-pyrazolo[3,4-b]pyridin-3-yl]pyrimidin-4-amine]",Reduction of ACR,C57Bl/6 mice [1]; 1 mg/kg orally prior to AngII,54%
same,"AngII induced ACR, mean±SD",C57Bl/6 mice [1]; 1 mg/kg orally prior to AngII 10 μg i.v.+10 μg s.c.,50 ± 49 µg/mg
same,"AngII induced ACR, mean±SD",C57Bl/6 mice [1]; 3 mg/kg orally prior to AngII 10 μg i.v.+10 μg s.c. (sGC stimulator experiment),42 ± 35 µg/mg
same,Reduction of ACR,C57Bl/6 mice [1]; 3 mg/kg orally prior to AngII (sGC stimulator experiment),62%
same,Effect on angiotensin II-induced cardiovascular remodeling,[2],ameliorates angiotensin II-induced cardiovascular remodeling
NC(=O)CC[C@@H]1NC(=O)[C@H](Cc2ccccc2)NC(=O)[C@H](Cc2ccc(O)cc2)NC(=O)[C@@H](N)CSSC[C@@H](C(=O)N2CCC[C@H]2C(=O)N[C@@H](CCCN=C(N)N)C(=O)NCC(N)=O)NC(=O)[C@H](CC(N)=O)NC1=O [AVP],GFR 2 hrs after AVP bolus injection,mice,decreased; also recorded: significant decrease in GFR
same,ACR in urine collected for 4 hours after AVP bolus injection,C57Bl/6 mice [3],significant increase of ACR
B1,ACR after injection of recombinant Sema3a,[4],"robust, transient ACR within 4-24 h"
same,Half-life of fluorescent molecule Ficoll-FITC 2 hrs after Sema3a bolus injection,Male BL6/J mice [5],significantly decreased half-life
same,Half-life of fluorescent molecule Ficoll-FITC 2 hrs after Sema3a bolus injection,Male BL6/J mice [5]; listed as Sema3A,significant decrease in half-life
same,ACR after Sema3a bolus injection,Male BL6/J mice [6],significantly increased ACR
